Source: patent publication US11938138B2, “Methods for improved treatment of cancer” (Washington University, priority 2020, dated 2024)
Like-named read-outs stand apart in the source and are kept apart here.

Legend:
[1] = system: Advanced solid tumors or NHL; settings: cited from earlier work; for DLTs: G3, at 80 mg, 8 patients
[2] = system: Relapsed/refractory lymphoma; settings: cited from earlier work
K562 cells [3] = experiment: Cell cycle perturbation of K562 cells (DNA content, CD24, annexin V/PI); type: cell-based, human; settings: for cells in G1 phase / G1 arrest / G2 arrest: 36 hours of treatment; for cells in G1 phase / G1 arrest: CVT-313 2 μM (p<0.05), lovastatin 12 μM (p<0.01), FIG. 14G; for G2 arrest: one-way ANOVA p<0.01
Description: CD24 surface protein was quantified using monoclonal human antibodies. Cells were spun down at 300 g for 3 minutes and washed twice with 1 mL of Cell Staining Buffer. The cell pellet was then resuspended in 50 μl of Cell Staining Buffer containing 0.2 μg of either CD24-APC or CD24-BV421. The tube was rotated at 4° C. in the dark for 30 minutes. After, cells were washed twice (as before) and finally resuspended in 200 μl of Cell Staining Buffer. Cells were excited with 450/45 and 660/20 lasers (wavelength/filter bandwidth, both in nm). For concomitant analysis of DNA content, we used CD24-APC. Cells were incubated with 10 μg/ml Hoechst 33342 in 5 mL of growth medium for 30 minutes prior to the staining protocol. For simultaneous assessment of apoptosis, cells were stained with CD24-BV421. After the final wash, instead of resuspending in 200 μl of Cell Staining Buffer, cells were washed twice with Annexin V Staining Buffer. Cells were then incubated in 50 μl Annexin V Staining Buffer containing 0.2 μg Annexin V-FITC and 100 μg/ml propidium iodide (PI). The reaction was incubated for 15 minutes at room temperature in the dark. Afterward, we added 150 μl of Annexin V Staining Buffer and proceeded to flow cytometry. All samples were measured on a Beckman-Coulter CytoFLEX S flow cytometer. Cells were excited with 450/45, 525/40, and 610/20 lasers. We collected 10,000 events per sample. The resulting data were processed with FlowJo Software for Mac Version 10.
We perturbed the cell cycle with lovastatin and nocodazole, two drugs classically used to synchronize cells in culture (Jackman and O'Connor, 2001), as well as the cyclin-dependent kinase inhibitors CVT-313 (Brooks et al., 1997) and RO-3306 (Vassilev et al., 2006). All drugs were dissolved in DMSO except nocodazole, which was dissolved in ethanol. […] Media was refreshed every 48 hours. After 36 hours of treatment, we stained for CD24 levels and nuclear DNA content. We gated for live, single cells using the forward scatter (FSC) and side scatter channels (SSC). Univariate cell cycle analysis was performed with FlowJo. We confirmed that all drugs perturbed cell cycle by altering the proportions of cells in either G1 or G2/M phase (FIG. 14G). […] Cultures remained under drug treatment until five days had elapsed, at which point we measured CD24 levels and stained for apoptosis (FIG. 14H). As before, we set gates to exclude debris to quantitate annexin V and PI, and measured CD24 in live cells gated on FSC and SSC. The G2 inhibitors, in particular, had very few cells in the FSC/SSC gate (typically below 5%).
For the analysis of annexin V levels in either JQ1- or DMSO-treated CD24^high and CD24^low cells, we used a three-way ANOVA with treatment, cell state, and day as independent variables. […] Multiple hypothesis correction was performed using Tukey's honestly significant difference. For the cell cycle inhibitor experiment, data were analyzed using a one-way ANOVA with Dunnett's post hoc test using either DMSO or EtOH (for RO-3306) as controls.

[4] = system: Hematologic and solid malignancies; 17 with NMC; settings: cited from earlier work
[5] = system: Relapsed/refractory lymphoma or multiple myeloma; settings: cited from earlier work
NMC = settings: cited from earlier work; for toxicities of interest: 4 patients (case series)
NMC, CRPC, NSCLC = settings: cited from earlier work
[6] = system: Relapsed/refractory leukemia; settings: cited from earlier work
Acute leukemia, MDS = settings: cited from earlier work; for DLTs: G3
K562 cells [7] = settings: Litzenburger et al., 2017; cited from earlier work
BRD4 = BRD4 CRISPRi of K562 cells; type: cell-based, human
Excerpt: For CRISPRi, we first made lentivirus expressing dCas9-KRAB (Fulco et al., 2016; Xie et al., 2017) from Addgene plasmid #89567, a gift from Gary Hon, packaged in HEK293T cells along with pMD2.G (Addgene plasmid #12259) and psPAX2 (Addgene plasmid #12260), both gifts from Didier Trono. We cloned a BRD4 guide RNA, selected from the Dolcetto collection (Sanson et al., 2018), into the sgOpti plasmid (Addgene plasmid #85681, a gift from Eric Lander & David Sabatini) using Golden Gate assembly with Esp3I. We used an in-house pipeline to design a non-targeting gRNA sequence, which was cloned into CROP-seq-opti (Lalli et al., 2019). Plasmids were transfected into HEK293T cells using Lipofectamine 2000. Media was collected after 24 and 48 hours, and subsequently concentrated using Lenti-X Concentrator. Viral titers were functionally assed on HEK293T cells using the appropriate antibiotic (blasticidin or puromycin).
Next, we generated a polyclonal pool of dCas9-KRAB-expressing K562 cells. We seeded each well of a 6-well plate with 200,000 cells each containing 2 mL of growth media supplemented with 4 μg/ml polybrene and 1,000,000 infectious lentiviral particles for an estimated multiplicity of infection (MOI) of 5. Plates were centrifuged at 2,000 g for 30 minutes and returned to the incubator. After 48 hours, cells were split to mid-log phase concentration (˜400,000 cells/nil) and selected on blasticidin (10 μg/ml) for 48 hours. We made frozen stocks from these cells.
For the knockdown experiments, cells were thawed and allowed to recover for 4 days. We confirmed that the proportions of CD24^high/CD24^low was approximately equal at this point. We then seeded 200,000 cells into each well of a 6-well plate. Three wells received the BRD4 gRNA lentivirus, while the other three received the non-targeting gRNA lentivirus, at MOI 2.5. We followed the same transduction protocol described above. After 48 hours of incubation, puromycin was added to the medium at a final concentration of 2 μg/ml. After a further 48 hours, cells were passaged 1:1 into 10 cm dishes containing 10 mL of growth medium. […]

[8] = nocodazole 40 ng/μl, RO-3306 4.5 μM

For `CNC(=O)N1N=C(c2ccc(N3CCN(C)CC3)cc2)c2cc(OC)c(OC)cc2C[C@@H]1C` [BAY1238097], the “Development (as DLTs occurred at subtherapeutic doses of drug)” value ([1]; 5-40 mg 2×/week in 21 day cycle) is listed as “halted as”, the “Recurrent headaches, patients” value ([1]; 10 and 40 mg cohorts) is listed as “in 50%” and the DLTs ([1]; headache) is listed as “headache,”. The DLTs ([1]; low back pain) was “G3 low back” and the DLTs ([1]; vomiting) was “G3 vomiting,”.

For `Cc1noc2c1-c1ccccc1C(c1ccc(Cl)cc1)=N[C@H]2CC(N)=O` [CPI-0610], the primary toxicity ([2]; dose dependent, reversible) is listed as “thrombocytopenia;”, the “Responses observed: CR” value ([2]; number of patients of 44) is listed as 2 and the “Responses observed: PR” value ([2]; number of patients of 44) is listed as 1. For the same molecule, the “Responses observed: SD” value ([2]; number of patients of 44) was “PR; 6 SD”, the “Responses observed: with responses not qualifying as PR” value ([2]; number of patients of 44) was 5 with and the “patients with G3 diarrhea” value ([2]; of 44 patients) was 1 patient with. For the same molecule, the “patients with G4 thrombocytopenia” value ([2]; of 44 patients) was 1 patient with.

With `COc1ccc(CNc2nc(N(CCO)CCO)nc3c2ncn3C(C)C)cc1` [CVT-313] the “cells in G1 phase / G1 arrest” value (K562 cells [3]) was “significant increase”.

For `CCNC(=O)C[C@@H]1N=C(c2ccc(Cl)cc2)c2cc(OC)ccc2-n2c(C)nnc21` [GSK525762], the “Responses observed: PR in NMC patients” value ([4]; 17 with NMC) is given as 2, the “Responses observed: SD in NMC patients” value ([4]; 17 with NMC) is given as 4 and the RP2D ([4]; daily, 70 patients) is given as 80 mg.

For `Cc1sc2c(c1C)C(c1ccc(Cl)cc1)=N[C@@H](CC(=O)Nc1ccc(O)cc1)c1nnc(C)n1-2` [MK-8628/OTX015], the DLTs ([5]; G3) is listed as “hyponatremia”, the DLTs ([5]; G4, neutropenia) is listed as “neutropenia,” and the DLTs ([5]; G4, thrombocytopenia) is listed as “thrombocytopenia, G4”. For the same molecule, the “Responses observed: OR (DLBCL)” value ([5]; number of patients of 45) was 3 OR, the “Responses observed: with improvement of pleural effusion” value ([5]; number of patients of 45) was “(DLBCL), 1” and the “Responses observed: with resolution of B symptoms” value ([5]; number of patients of 45) was “effusion; 2”. The “Responses observed: with responses not meeting PR criteria” value ([5]; number of patients of 45) was 2 with, the RP2D ([5]; q.d.s. × 14/21 days, 45 patients) was 80 mg and the anemia ([5]; toxicity incidence) was “(91%)”. The diarrhea ([5]; toxicity incidence) was “(47%),”, the dysgeusia ([5]; toxicity incidence) was “(15%),” and the fatigue ([5]; toxicity incidence) was “(27%),”. For the same molecule, the toxicities of interest (NMC; G2, dysgeusia) was “dysgeusia,”, the toxicities of interest (NMC; G2, fatigue) was “G2 fatigue” and the toxicities of interest (NMC; G2, hyperglycemia) was “hyperglycemia,”. The toxicities of interest (NMC; G2, nausea) was “G2 nausea, G2”, the toxicities of interest (NMC; G3) was “thrombocytopenia,” and the “Responses observed: PR” value (NMC; number of patients of 4) was 2. For the same molecule, the “Responses observed: SD” value (NMC; number of patients of 4) was 1, the “Responses observed: PR” value (NMC, CRPC, NSCLC; number of patients of 47) was 4 and the “Responses observed: SD” value (NMC, CRPC, NSCLC; number of patients of 47, for 4-8 months) was 5. The G3-4 thrombocytopenia (NMC, CRPC, NSCLC; toxicity incidence) was “(20%), G3”, the G3 anemia (NMC, CRPC, NSCLC; toxicity incidence) was “(9%), G3” and the G3 fatigue (NMC, CRPC, NSCLC; toxicity incidence) was “fatigue (7%)”. For the same molecule, the “Responses observed: CR” value ([6]; number of patients of 36) was 1 CR; 1 CRi, the “Responses observed: CRi (platelets)” value ([6]; number of patients of 36) was 1 CR; 1 CRi and the “Responses observed: with disappearance of hypertrophied gums” value ([6]; number of patients of 36) was “clearance, 1”. For the same molecule, the MTD ([6]; q.d.s., 36 patients) was 120 mg, the abdominal pain ([6]; toxicity incidence) was “pain (11%),” and the “decreased factor VII” value ([6]; toxicity incidence) was “(21%)”. For the same molecule, the dysgeusia ([6]; toxicity incidence) was “(11%),”, the DLTs (Acute leukemia, MDS; diarrhea) was “diarrhea, G3” and the DLTs (Acute leukemia, MDS; fatigue) was “fatigue”. The diarrhea (Acute leukemia, MDS; limited compliance) was “(34%),”, the rash (Acute leukemia, MDS; limited compliance) was “rash (20%)” and the “Responses observed: CR” value (Acute leukemia, MDS; number of patients of 41) was 2. For the same molecule, the “Responses observed: CRi (platelets) × 2 months” value (Acute leukemia, MDS; number of patients of 41) was 1 and the RP2D (Acute leukemia, MDS; q.d.s. × 14/21 days, 41 patients) was 80 mg.

For `O=C1NC(=NCc2cccs2)S/C1=C\c1ccc2ncccc2c1` [RO-3306], the G2 arrest (K562 cells [3]; [8]) was “significant G2 arrest”.

In the case of `Cc1ccc(NC(=O)c2ccc(CN3CCN(C)CC3)cc2)cc1Nc1nccc(-c2cccnc2)n1` [imatinib], the “apoptosis of CD24low versus CD24high K562 cells when exposed to imatinib” value (K562 cells [7]) is given as “more apoptosis”.

With `CC[C@H](C)C(=O)O[C@H]1C[C@@H](C)C=C2C=C[C@H](C)[C@H](CC[C@@H]3C[C@@H](O)CC(=O)O3)[C@H]21` [lovastatin] the “cells in G1 phase / G1 arrest” value (K562 cells [3]) was “significant decrease”.

With `COC(=O)Nc1nc2ccc(C(=O)c3cccs3)cc2[nH]1` [nocodazole] the G2 arrest (K562 cells [3]; [8]) was “significant G2 arrest” and the “surviving cells after five days of treatment” value (K562 cells [3]; K562, nocodazole 40 ng/μl, RO-3306 4.5 μM) was “very few surviving cells”.

In the case of “BRD4 gRNA: guide RNA GCGGCTGCCGGCGGTGCCCG for knockdown of BRD4 with CRISPRi (dCas9-KRAB) (listed as DNA, chemistry not given here)”, the “sensitization of K562 cells to imatinib” value (BRD4; imatinib 1 μM, Tukey's HSD p=0.68 (FIG. 14E-14F)) is reported as “partially phenocopied”, the “proportion of CD24high cells compared to non-targeting (NT) gRNA” value (BRD4; nine days after gRNA transduction, Welch's t test p<0.01 (FIG. 6E), not to the same levels as JQ1) is reported as “significant decrease” and the “reduction of BRD4 mRNA levels” value (BRD4; qRT-PCR (FIG. 14D)) is reported as “less than 50%”.
